Measurements reported in patent US11414416B1, “Compounds and uses thereof” (Foghorn Therapeutics Inc., priority 2019, dated 2022).

target: Nanoluciferase-BRD9 fusion protein (Homo sapiens (Human), UniProt Q9H8M2); assay: SYO1 BRD9 NanoLuc degradation assay; type: cell-based; details: Table 5B; SYO-1 cells expressing 3×FLAG-NLuc-BRD9, 6 hours; read-out: SYO1 BRD9-NanoLuc degradation IC50
Summary of the method: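 Degradation was read as loss of nanoluciferase signal (Nano-Glo) after 6 h compound exposure in a stable SYO-1 line carrying 3×FLAG-NLuc-BRD9 (8000 cells/well). Normalised between DMSO (high) and a 1 μM known BRD9 degrader (low).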

Nanoluciferase-BRD9 fusion protein, sequence (Q9H8M2 whole entry, the tested form may be a part): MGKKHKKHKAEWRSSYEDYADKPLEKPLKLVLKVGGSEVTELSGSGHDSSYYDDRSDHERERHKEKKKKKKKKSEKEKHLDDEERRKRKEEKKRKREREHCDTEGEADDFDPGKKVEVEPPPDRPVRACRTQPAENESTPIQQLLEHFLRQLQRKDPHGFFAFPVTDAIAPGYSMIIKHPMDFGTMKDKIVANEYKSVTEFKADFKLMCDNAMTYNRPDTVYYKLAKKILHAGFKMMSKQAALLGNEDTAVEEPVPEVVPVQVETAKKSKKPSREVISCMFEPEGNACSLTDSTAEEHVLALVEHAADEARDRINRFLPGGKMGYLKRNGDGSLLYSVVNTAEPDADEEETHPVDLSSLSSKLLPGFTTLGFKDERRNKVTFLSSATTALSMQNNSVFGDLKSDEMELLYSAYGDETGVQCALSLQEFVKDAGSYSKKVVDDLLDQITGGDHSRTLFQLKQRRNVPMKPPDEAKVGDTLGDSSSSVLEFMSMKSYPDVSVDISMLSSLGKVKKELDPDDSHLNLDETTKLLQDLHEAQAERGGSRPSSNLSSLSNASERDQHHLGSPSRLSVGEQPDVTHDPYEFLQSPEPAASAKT

DC50 | Compound
< 10 nM | COc1cc(-c2cc(C(F)F)c(=O)n(C)c2)cc(OC)c1CN1CCC2(CC1)CN(c1ccc3c(c1)C(=O)N(C1CCC(=O)NC1=O)C3=O)C2 (stereo not drawn) [Compound D341]
> 1000 nM | COc1cc(-c2cnc(=O)n(C)c2)cc(OC)c1CN1CCN(CCC2CCN(c3ccc4c(c3)C(=O)N(C3CCC(=O)NC3=O)C4=O)CC2)CC1 (stereo not drawn) [Compound D342]
< 10 nM | COc1cc(-c2cc(C)c(=O)n(C)c2C)cc(OC)c1CN1CCN(c2ccc3c(c2)C(=O)N(C2CCC(=O)NC2=O)C3=O)CC1 (stereo not drawn) [Compound D343]
< 10 nM | COc1cc(-c2ccc(=O)n(C)c2)cc(OC)c1CN1CCN(c2ccc3c(c2)C(=O)N(C2CCC(=O)NC2=O)C3=O)CC1 (stereo not drawn) [Compound D344]
< 10 nM | COc1cc(-c2cn(C)c(=O)c(C)c2C)cc(OC)c1CN1CC(CN2CCC3(CC2)CN(c2ccc4c(c2)C(=O)N(C2CCC(=O)NC2=O)C4=O)C3)C1 (stereo not drawn) [Compound D345]
< 10 nM | COc1cc(-c2cc(C)c(=O)n(C)c2C)cc(OC)c1CN1CC(CN2CCC3(CC2)CN(c2ccc4c(c2)C(=O)N(C2CCC(=O)NC2=O)C4=O)C3)C1 (stereo not drawn) [Compound D346]
< 10 nM | COc1cc(-c2ccc(=O)n(C)c2)cc(OC)c1CN1CC(CN2CCC3(CC2)CN(c2ccc4c(c2)C(=O)N(C2CCC(=O)NC2=O)C4=O)C3)C1 (stereo not drawn) [Compound D347]
< 10 nM | C=CCn1cc(-c2cc(OC)c(CN3CC(CN4CCC5(CC4)CN(c4ccc6c(c4)C(=O)N(C4CCC(=O)NC4=O)C6=O)C5)C3)c(OC)c2)cc(C)c1=O (stereo not drawn) [Compound D348]
< 10 nM | COc1cc(-c2cn(C)c(=O)cc2C)cc(OC)c1CN1CC(CN2CCC3(CC2)CN(c2ccc4c(c2)C(=O)N(C2CCC(=O)NC2=O)C4=O)C3)C1 (stereo not drawn) [Compound D349]
100 to 1000 nM | CNC(=O)NCc1cc(-c2cc(OC)c(CN3CC(CN4CCC5(CC4)CN(c4ccc6c(c4)C(=O)N(C4CCC(=O)NC4=O)C6=O)C5)C3)c(OC)c2)cn(C)c1=O (stereo not drawn) [Compound D350]
> 1000 nM | COc1cc(-c2cn(C)c(=O)c(C#N)c2C)cc(OC)c1CN1CC(CN2CCC3(CC2)CN(c2ccc4c(c2)C(=O)N(C2CCC(=O)NC2=O)C4=O)C3)C1 (stereo not drawn) [Compound D351]
> 1000 nM | COc1cc(-c2cc(C#N)c(=O)n(C)c2)cc(OC)c1CN1CC(CN2CCC3(CC2)CN(c2ccc4c(c2)C(=O)N(C2CCC(=O)NC2=O)C4=O)C3)C1 (stereo not drawn) [Compound D352]
< 10 nM | COc1cc(-c2cc(C)c(=O)n(C)c2)c(OC)cc1CN1CC(CN2CCC3(CC2)CN(c2ccc4c(c2)C(=O)N(C2CCC(=O)NC2=O)C4=O)C3)C1 (stereo not drawn) [Compound D353]
< 10 nM | COc1cc(-c2cn(C)c(=O)c(C)c2C)c(OC)cc1CN1CC(CN2CCC3(CC2)CN(c2ccc4c(c2)C(=O)N(C2CCC(=O)NC2=O)C4=O)C3)C1 (stereo not drawn) [Compound D354]
> 1000 nM | CNC(=O)N(C)Cc1cc(-c2cc(OC)c(CN3CC(CN4CCC5(CC4)CN(c4ccc6c(c4)C(=O)N(C4CCC(=O)NC4=O)C6=O)C5)C3)c(OC)c2)cn(C)c1=O (stereo not drawn) [Compound D355]
< 10 nM | COc1cc(-c2cn(C)c(=O)c3ccccc23)cc(OC)c1CN1CC(CN2CCC3(CC2)CN(c2ccc4c(c2)C(=O)N(C2CCC(=O)NC2=O)C4)C3)C1 (stereo not drawn) [Compound D356]
< 10 nM | COc1cc(-c2cc(C)c(=O)n(C)n2)cc(OC)c1CN1CCC2(CC1)CN(c1ccc3c(c1)CN(C1CCC(=O)NC1=O)C3=O)C2 (stereo not drawn) [Compound D357]
< 10 nM | COc1cc(-c2cc(C)c(=O)n(C)n2)cc(OC)c1CN1CCC2(CC1)CN(c1ccc3c(c1)C(=O)N(C1CCC(=O)NC1=O)C3)C2 (stereo not drawn) [Compound D358]
< 10 nM | COc1cc(-c2cc(C)c(=O)n(C)c2C)c(OC)cc1CN1CC(CN2CCC3(CC2)CN(c2ccc4c(c2)C(=O)N(C2CCC(=O)NC2=O)C4=O)C3)C1 (stereo not drawn) [Compound D359]
< 10 nM | COc1cc(-c2cn(C)c(=O)c3ccccc23)cc(OC)c1CN1CC(CN2CCC3(CC2)CN(c2ccc4c(c2)CN(C2CCC(=O)NC2=O)C4=O)C3)C1 (stereo not drawn) [Compound D360]
< 10 nM | COc1cc(-c2cn(C)c(=O)c3cncn23)cc(OC)c1CN1CC(CN2CCC3(CC2)CN(c2ccc4c(c2)C(=O)N(C2CCC(=O)NC2=O)C4)C3)C1 (stereo not drawn) [Compound D361]
